Data taken from US6586596B2, “Acetylcholine enhancers” (priority 1998, dated 2003).

Experiments:
[1] = test system: Cynomologous monkeys; test: Hepatotoxic analysis, two-week oral study; format: in vivo; details: 5 mg/kg/day oral, 2 weeks; as to Autopsy, organ weight and histopathology: key: − no remarkable change; ↑ increase; ↓ decrease; + slight; ++ severe (diarrhea); as to Blood biochemistry: key: − no remarkable change; ↑ increase; ↓ decrease; + slight; ++ severe (diarrhea); as to Body weight: key: − no remarkable change; ↑ increase; ↓ decrease; + slight; ++ severe (diarrhea)
Source text: The following parameters were examined: body weight, clinical signs, food consumption, blood biochemistry (GOT, GPT, ALP, LDH, γ-GTP, ChE, Bil, T.Pro, Alb, A/G ratio, T.Cho, NEFA, TG). After the administration period, the animals were sacrificed and autopsied. Organs and tissues were weighed, then examined histopathologically.

[2] = test system: scopolamine-induced spatial memory deficit; test: Eight-arm radial maze, scopolamine-induced deficit in spatial memory; format: in vivo, male Wistar rats; details: oral dose 0.03~0.3 mg/kg; scopolamine 0.5 mg/kg i.p.
Protocol: Using male Wistar rats, the anti-amnestic effects of Cm.A on spatial cognition was evaluated using an eight-arm radial maze task. After repeated trials for spatial cognition, memory-established rats (which had more than 7 correct choices and less than one error) were utilized.

COc1c2c(nc3ccccc13)CN(CCC1CCN(Cc3ccccc3)CC1)C2=O [Cm.A, 2-[2-(1-benzylpiperizin-4-yl)ethyl]-2,3-dihydro-9-methoxy-1H-pyrrolo[3,4-b]quinolin-1-one hemifumarate]
clinical signs during the dosing period [1]: caused soft stools, but to a lesser extent than the other two compounds | hepatotoxicity [1]: no hepatotoxicity | Autopsy, organ weight and histopathology ([1]; F): − | Blood biochemistry ([1]; F): − | Body weight ([1]; F): − | Clinical signs softstool ([1]; F): + | Clinical signs vomiting ([1]; F): − | Food consumption ([1]; F): − | Autopsy, organ weight and histopathology ([1]; M): − | Blood biochemistry ([1]; M): − | Body weight ([1]; M): − | Clinical signs softstool ([1]; M): + | Clinical signs vomiting ([1]; M): − | Food consumption ([1]; M): − | deficit of spatial cognition (correct choices, errors) [2]: significantly improved the deficit of spatial cognition
